According to patent US6812218B2, “Lipid derivatives of polythiourea” (Gencell S.A., priority 2001, dated 2004):

What was measured:
plasmid pXL3031 = assay: ethidium bromide fluorescence test of nucleic acid compaction; type: binding; details: conditions identical to the DT-3TU mixtures, 150 mM sodium chloride
Experimental: In the text which follows, the nucleic acid used was the plasmid pXL3031 described in the publication Gene Therapy (1999) 6, pp. 1482-1488, which contained the luc gene encoding luciferase under the control of the cytomegalovirus CMV E/P promoter. This plasmid is represented in FIG. 7. Its size is 3671 bp. The plasmid solution used was diluted to 1.262 g/l in water for injection.
(§1) The nucleic acid was brought into contact with increasing quantities of DT-3TU (12), by equivolumetric mixing of lipid solutions of various titers in the solutions of nucleic acid. Samples of 800 μl of nucleic acid complexes with a concentration of 0.01 μg/ml were thus prepared in a 150 mM sodium chloride solution with increasing quantities of DT-3TU (12).
as §1, with “In the same manner, a control was prepared by bringing the” for “The”, “acid” for “acid was brought”, “EPC (see FIG. 1) or of DPPC (see FIG. 2),” for “DT-3TU (12),”, “[…]” for “μg/ml”, “EPC or of DPPC (FIGS. 1 and 2 respectively).” for “DT-3TU (12).”
The ethidium bromide fluorescence was measured over time (measured at 20° C.) using a FluoroMax-2 (Jobin Yvon-Spex) with excitation and emission wavelengths of 260 nm and 590 nm respectively. […]

HeLa cells [1] = assay: in vitro transfection, luciferase activity; type: cell-based, human; details: 10% FCS versus without serum
Experimental: This study was carried out for lipoplexes comprising various quantities of DT-3TU: 1.5 or 5 or 10 or 15 or 20 nmol of DT-3TU/μg of DNA. Each of these conditions was tested with and without fetal calf serum (“+Serum” or “−Serum”).
HeLa cells (American type Culture Collection (ATCC) Rockville, Md., USA) derived from a carcinoma of human cervical epithelium, were cultured in the presence of an MEM (“minimum essential medium”) type medium with addition of 2 mM L-glutamine, 50 units/ml of penicillin and 50 units/ml of streptomycin. The medium and the additives were from Gibco-BRL Life Technologies (Gaithersburg, Md., USA). The cells were cultured in flasks at 37° C. and at 5% carbon dioxide in an incubator.
one day before the transfection, the HeLa cells were transferred into […] with a cell number of 30,000 to 50,000 per well. These dilutions represent approximately 80% confluence after 24 hours. […]
Briefly, the transfected cells were washed twice with 500 μl of PBS (phosphate buffer) and then lysed with 250 μl of reagent (Promega cell culture lysis reagent, of the Luciferase Assay System kit). An aliquot of 10 μl of supernatant of the lysate centrifuged (12,000×g) for 5 minutes at 4° C. was measured with a Wallace Victor 2 luminometer (1420 Multilabel couter). […]

[2] = tested on: tibial and cranial muscles; assay: in vivo muscle transfection, luciferase expression; parameters: species or system mice C57bl/6; details: intramuscular, 3 μg of DNA, 96 hours after injection
Experimental: Muscles samples were taken 96 hours after the injection and the level of expression for luciferase was measured using a luminometer (wallace).
Complexes containing increasing quantities of DT-3TU lipid per μg of DNA were injected in both tibial and cranial muscles of the mice, to which electric pulsations were or were not applied (Bureau, M et al, BBA 2000).
The mice C57bl/6 had undergone previously anaesthetic with a mixture of Ketamin/Xylazine. The injection was or was not followed by the application of transcutaneous electric pulsations using electrodes placed in both ends of the muscle (Bureau, M et al, BBA 2000).
96 hours after the injection, the mice underwent euthanasia, muscles samples were taken and ground in 1 ml buffer lyse solution. After centrifugation (10 min., 12000 rpm, 4° C.), supernatant (10 μl) was taken and placed in a 96 well plate to read the luciferase after adding 50 μl of luciferase substrate. The level of luminescence was read in the supernatant using a luminometer (Wallace, Victor).

HeLa cells [3] = assay: toxicity toward the cells, protein level after transfection; type: cell-based, human; details: lipoplexes with 0.75 to 20 nmol of DT-3TU per μg of DNA
Experimental: The protein level was measured after transfection. The transfection protocol was identical to that described in Example 8.
Briefly, the transfected cells were washed twice with 500 μl of PBS (phosphate buffer) and then lysed with 250 μl of reagent (Promega cell culture lysis reagent, of the Luciferase Assay System kit). An aliquot of 50 μl of supernatant of the lysate centrifuged (12,000×g) for 5 minutes at 4° C. was transferred into a tube in the presence of 50 μl of 0.1 M iodoacetamide, 0.1 M hydrochloric acid tris at pH 8.2 and left for 1 hour at 37° C. 20 μl of the preceding solutions were deposited in a 96-well plate and 200 μl of “BCA protein assay” reagent (Pierce, Montluson, France) were added. The plate was then centrifuged at 2500 revolutions/min and then incubated at 37° C. for 30 minutes. In parallel, a bovine serum albumin (BSA) range was prepared in order to correlate the absorbance value obtained for the samples with a quantity of protein present in the sample.

[4] = size of the lipid/DNA particles; type: physicochemical; details: without lipid-PEG
Text: The use of cholesterol-PEG in the DT-3TU/DPPC formulations has the advantage of permitting the reduction of the particles to such a quantity of lipid that, in the case of the absence of lipid-PEG, would lead to aggregation. […] In order to obtain particles of this size it is necessary to use at least 40 nmol of the lipid DT-3TU/μg of DNA. Thus, the use of lipid-PEG in the formulations of the lipid DT-3TU has the advantage of reducing the quantity of DT-3TU necessary to compact the DNA and form particles whose size is smaller than 500 nm

In the case of `CCCCCCCCCCCCCCCC(=O)OC[C@H](COP(=O)([O-])OCC[N+](C)(C)C)OC(=O)CCCCCCCCCCCCCCC` [DPPC, 1,2-dipalmitoyl-sn-glycero-3-phosphocholine], the “decrease in fluorescence, lipid alone (control)” value (plasmid pXL3031) is reported as “about 5%”.

For `CCCCCCCCCCCCCCN(CCCCCCCCCCCCCC)C(=O)CCC(=O)NCCNC(=S)NCCNC(=S)NCCNC(=S)NC` [DT-3TU, 3-(2-{3-[2-(3-{2-[3-(ditetradecylcarbamoyl)propionylamino]ethyl}thioureido)ethyl]thioureido}ethyl)-1-methylthiourea], the “effect of the presence of serum on transfection” value (HeLa cells [1]) was “weak inhibition of transfection”, the “level of expression (luciferase) versus background noise of control muscle” value [2] was > 5.0×10^4 and the “transfection of muscle tissues” value ([2]; 20 and 40 nmol of DT-3TU lipid per μg of DNA, with or without electric pulsations) was “significant level of transfection”. For the same compound, the “toxicity toward the cells” value (HeLa cells [3]) was “no toxicity was observed” and the “quantity of lipid necessary to obtain particles inferior to 500 nm” value [4] was “at least 40 nmol of the lipid DT-3TU/μg of DNA”.
